Measured values reported in PMC9965520, “An Efficient Peptidomics Screening for Exogenous Substrates and Inhibitory Peptides of the Dipeptidase ACE from Milk Hydrolysate” (Pharmaceutics, 2023).
Like-named read-outs stand apart in the source and are kept apart here. No end group written: not given here.

How the values were obtained:
[1] = target: T1, ACE (Oryctolagus cuniculus, UniProt P12822); assay: ACE hydrolysis of synthetic substrate candidates monitored by LC-MS at different incubation times; assay type: in vitro ADME, rabbit; parameters: ACE (EC 3.4.15.1, 1 unit) from rabbit lungs; purchased Sigma Chemical Co. (St. Louis, MO, USA); host or cells: rabbit lungs (tissue-derived enzyme); conditions: 37 °C; for Substrate content (%) 30min / Substrate content (%) 60min / Substrate content (%) 90min / Substrate content (%) 120min / Substrate content (%) 150min / Substrate content (%) 180min: synthetic peptide with ACE, RS% = As/(As+Ap)x100 from SIC peak areas, LC-MS
T1 sequence (P12822 34-1310): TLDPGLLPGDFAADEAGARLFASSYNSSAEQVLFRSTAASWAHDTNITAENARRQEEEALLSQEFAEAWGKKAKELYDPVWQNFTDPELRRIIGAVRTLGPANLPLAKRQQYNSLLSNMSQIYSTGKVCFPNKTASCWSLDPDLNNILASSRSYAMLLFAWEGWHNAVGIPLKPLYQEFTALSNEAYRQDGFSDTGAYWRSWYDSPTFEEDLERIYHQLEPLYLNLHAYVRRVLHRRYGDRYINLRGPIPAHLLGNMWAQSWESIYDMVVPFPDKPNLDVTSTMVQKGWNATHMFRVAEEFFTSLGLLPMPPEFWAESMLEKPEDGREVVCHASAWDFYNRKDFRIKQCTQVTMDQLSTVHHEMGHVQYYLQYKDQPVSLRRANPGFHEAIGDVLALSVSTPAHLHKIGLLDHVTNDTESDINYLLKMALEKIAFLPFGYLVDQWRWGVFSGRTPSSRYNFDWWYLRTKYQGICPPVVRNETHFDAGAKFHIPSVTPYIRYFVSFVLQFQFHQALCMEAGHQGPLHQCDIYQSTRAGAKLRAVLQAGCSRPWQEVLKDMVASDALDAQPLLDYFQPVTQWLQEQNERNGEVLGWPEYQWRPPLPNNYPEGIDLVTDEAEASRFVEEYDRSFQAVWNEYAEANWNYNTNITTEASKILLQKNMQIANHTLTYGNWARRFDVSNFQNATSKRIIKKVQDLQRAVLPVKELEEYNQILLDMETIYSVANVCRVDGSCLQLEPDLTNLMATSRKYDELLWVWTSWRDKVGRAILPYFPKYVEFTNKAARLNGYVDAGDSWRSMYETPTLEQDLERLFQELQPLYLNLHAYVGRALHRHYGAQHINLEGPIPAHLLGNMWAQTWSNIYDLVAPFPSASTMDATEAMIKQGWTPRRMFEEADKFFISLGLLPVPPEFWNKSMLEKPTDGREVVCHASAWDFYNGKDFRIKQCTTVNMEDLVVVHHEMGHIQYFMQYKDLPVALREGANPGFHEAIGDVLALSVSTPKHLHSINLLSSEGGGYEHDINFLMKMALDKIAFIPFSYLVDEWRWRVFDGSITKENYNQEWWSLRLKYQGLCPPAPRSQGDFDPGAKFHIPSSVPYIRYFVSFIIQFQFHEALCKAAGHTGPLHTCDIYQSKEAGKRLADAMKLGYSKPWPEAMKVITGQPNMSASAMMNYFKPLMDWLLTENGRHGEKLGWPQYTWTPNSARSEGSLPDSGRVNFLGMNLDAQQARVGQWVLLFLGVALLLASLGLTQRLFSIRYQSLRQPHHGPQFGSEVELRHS
Procedure: To confirm the reactivity of the identified peptide candidates towards ACE, the synthetic peptides were individually mixed with ACE and incubated at 37 °C for 3 h. The remaining peptide substrate and the resulting product were analyzed using LC-MS/MS. Meanwhile, the degradation rate of each peptide was monitored every 30 min using LC-MS. The percentage of the remaining substrate (RS%) at each time point was calculated as As/(As + Ap) 100%. In which, As is the selective ion chromatogram (SIC) peak area of remaining substrate and Ap is the peak area of the resulting product. The RS% was further compared with the D/H ratio obtained in Section 2.4.

[2] = target: T1, ACE; assay: ACE inhibitory (ACEI) assay with HHL as substrate, with and without ACE pre-incubation; assay type: biochemical, rabbit; parameters: ACE (EC 3.4.15.1, 1 unit) from rabbit lungs; purchased Sigma Chemical Co. (St. Louis, MO, USA); host or cells: rabbit lungs (tissue-derived enzyme); conditions: 37 °C, HA by HPLC-UV 228 nm, mean ± SD, triplicate
Procedure: The ACE inhibitory assay was performed based on the previous report with slight modification. […] The mixture was first incubated at 37 °C statically for 30 min, and then shaken at 200 rpm for another 30 min. The reaction was terminated using 60 µL of HCl (1 M). The hydrolyzed product of HHL, HA, was analyzed by HPLC (Hitachi Chromaster, Tokyo, Japan) equipped with a NUCLEODUR® C18 HTec column (4.6 mm × 250 mm; particle size 5 µm, Macherey-Nagel, Düren, Germany) and quantified by its chromatographic peak area. The mixture was separated using an isocratic elution with the solution containing 24% ACN and 0.1% TFA at a constant flow rate of 1 mL/min. The substrate and product were monitored using a UV-Vis detector at a wavelength of 228 nm. The ACEI activity (%) was calculated as shown below: ACEI activity (%) = [1 – (Ainhibitor/Ablank)] × 100% where Ainhibitor and Ablank were the resulting HA peak areas in the mixtures with and without inhibitors, respectively. Along with the peptide substrate’s ACEI activity, its IC50 value was also determined using a nonlinear regression between ACE inhibition (%), and the logarithm of inhibitor concentrations could be carried out with GraphPad Prism 5.0 (GraphPad Software, Inc., La Jolla, CA, USA).

[3] = target: T1, ACE; conditions: Ang-I (1 μg) + peptide (1 μg), ACE 0.05 mU/µL, 200 mM borate buffer, 300 mM NaCl, pH 8.3, 37 °C, 3 h; RA% = AI/(AI+AII)x100, LC-MS SIC
Procedure: To a mixture of Ang-I (1 μg) and peptide substrate (1 μg) in 50 µL of borate buffe (200 mM borate buffer, 300 mM NaCl, pH 8.3), 20 µL of ACE (0.05 mU/µL) was added. The mixture was incubated at 37 °C and monitored using LC-MS/MS at 1, 2, 3, 4, 6, and 10 h. The LC separation was performed on Syncronis C18 column (150 mm × 2.1 mm, 5 µm, Thermo Scientific) and eluted with the mobile phase A (5% ACN and 0.1% FA) and B (95% ACN and 0.1% FA) at a flow rate of 350 µL/min. The elution gradient was programmed as (i) 0–5 min, isocratic elution with 5% B; (ii) 5–20 min, linear gradient from 5% to 55% B; (iii) 20–22 min, linear gradient from 55% to 80% solution B; and finally (iv) 22–30 min, isocratic elution maintained at 80% solution B. The degradation of Ang-I and the formation of Ang-II were analyzed using selective ion chromatogram (SIC) on a triple quadrupole mass analyzer (TSQ, Thermo Scientific). The percentage of the remaining angiotensin I (RA%) at each time point was calculated as AI/(AI + AII) × 100%, where AI is the SIC peak area of remaining Ang-I and AII is the peak area of the resulting Ang-II.

[4] = no ACE pre-incubation, 2.5 mM HHL, ACE 0.05 mU/µL, borate buffer, 30 min static + 30 min 200 rpm, read-out: IC50 (μM) (Regular Assay)
[5] = peptide pre-incubated with ACE, then HHL assay, read-out: IC50 (μM) (Pre-Incubation)

| Substance | Substrate content (%) 30min [1] [%] | Substrate content (%) 60min [1] [%] | Substrate content (%) 90min [1] [%] | Substrate content (%) 120min [1] [%] | Substrate content (%) 150min [1] [%] | Substrate content (%) 180min [1] [%] | IC50 [2, 4] [µM] | IC50 [2, 5] [µM] | Hydrolysis of synthetic peptide by ACE (result in words) ([1]; synthetic peptide incubated with ACE, 3 h, LC-MS/MS) | Ang-I remained (RA%) on co-incubation with peptide [3] [%] |
| --- | --- | --- | --- | --- | --- | --- | --- | --- | --- | --- |
| LVYPFPGPIHNSL [LL-13] | 7.80 | 7.20 | 6.25 | 5.68 | 2.64 | 1.05 | 38.9 ± 2.05 | 27.3 ± 2.16 | – | – |
| HLPLPLLQSW [HW-10] | 2.47 | 0.00 | 0.00 | 0.00 | 0.00 | 0.00 | 10.6 ± 0.17 | 17.8 ± 0.65 | – | – |
| FFVAPFPEVF [FF-10] | 76.08 | 49.76 | 34.59 | 32.31 | 21.80 | 14.21 | 104 ± 2.47 | 44.6 ± 3.06 | partially hydrolyzed | – |
| YVPLGTQ [YQ-7] | 8.35 | 7.02 | 6.54 | 6.41 | 6.27 | 5.83 | 250 ± 7.9 | 189 ± 9.6 | – | – |
| AYFYPELFR [AR-9] | 2.40 | 1.59 | 0.00 | 0.00 | 0.00 | 0.00 | 6.8 ± 0.23 | 25.3 ± 0.96 | – | 73.9 |
| LHLPLPLL [LL-8] | 58.04 | 37.06 | 22.61 | 11.41 | 7.12 | 6.82 | 12.3 ± 0.37 | 71.9 ± 2.19 | – | – |
